Experimental data reported in US20080311126A1, “Antisense Oligonucleotides Directed to Ribonucleotide Reducatase R2 and Uses Thereof in Combination Therapies for the Treatment of Cancer” (Genesense Technologies, Inc, priority 2004, published 2008).
Oligonucleotides are written 5' to 3', each unit as a sugar letter and its base; * is a phosphorothioate linkage, no mark a phosphodiester; rarer units and linkages stand in square brackets, end groups in braces. Plain capitals give the bases only. d = 2'-deoxy (DNA)

How the values were obtained:
Type in all cases: cell-based, human
Hela S3 cells = experiment: Relative colony forming efficiency, lipofectin +/- oligonucleotide 4 hours; details: Hela S3 cervix carcinoma cells; averages of 2-8 determinations
Method: Colony forming efficiency was determined using standard protocols. Briefly, the cells were cultured for 24 hours at 37° C. in growth medium with 10% fetal bovine serum. The cells were washed in 5 ml phosphate buffered saline, pH 7.2, once prior to lipofectin +/−oligonucleotide treatment.
The test oligonucleotides were added to cell cultures in the presence of 2.5 μg of DOTMA/DOPE (Lipofectin; Life Technologies, Inc.) for four hours. The oligonucleotide was tested at 0.2 μM unless otherwise indicated. Controls were the cultures treated with lipofectin but without the oligonucleotide. After 4 hours the medium containing the oligonucleotide was removed and washed with 5 ml of growth medium. The cells were then cultured in growth medium containing 10% fetal bovine serum for seven to ten days. Surviving cells were visualized by methylene blue staining, and colonies were scored. In some experiments cell aliquots were removed from the culture and viability was determined using the trypan blue exclusion test. Results were analyzed as percent of surviving cells compared to control cells.
AS-II-336-20 was tested for the ability to inhibit the proliferation of human tumour cells (Hela). Hela S3 cells (American Type Culture Collection, Rockville, Md., ATCC), and a Hela cell line (Hela 1 mM) previously selected for resistance to the antitumour agent, hydroxyurea, were tested (see results in Table 11). Two experiments were undertaken with Hela S3 cells. […] The same experiment was repeated with the Hela 1 mM cell line and with varying concentrations of the antisense construct AS-II-336-20 (see results in Table 11) with similar results, […] was an effective concentration for inhibiting colony formation.
To test the antisense effects of many of these sequences as phosphorthioate deoxyribonucleotides, they were examined in relative colony forming experiments conducted as described in Example 16 with a series of human tumour cell lines. The results (shown as % inhibition of colony forming ability) obtained with cancer cells derived from the bladder, breast, lung, colon, pancreas, prostate, liver and cervix, are shown in Table 13. The specific cell lines employed are as follows:
T24=bladder cell carcinoma HCT116=colon cell carcinoma A549=lung cell carcinoma MDA-MB-231=breast cell adenocarcinoma […]=pancreatic cell carcinoma PC-3=prostrate cell adenocarcinoma HepG2=hepatocellular carcinoma HeLaS3=cells isolated from a carcinoma of the cervix T-47D=breast ductal carcinoma H596=lung adenosquamous carcinoma cells Colo320=colon cell adenocarcinoma

A549 lung cell carcinoma = experiment: Relative colony forming efficiency (Example 17, Table 13); details: averages of 2-8 determinations
In short: (§1)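 Phosphorothioate antisense oligonucleotides were delivered to tumour cell cultures with 2.5 μg DOTMA/DOPE (Lipofectin) over four hours, at 0.2 μM unless otherwise indicated. Surviving colonies were stained with methylene blue and scored. Values are % inhibition of colony formation relative to lipofectin-only controls.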

[1] = tested on: HepG2 hepatocellular carcinoma; experiment: as above; details: averages of 2-8 determinations
In short: as §1

[2] = tested on: MDA-MB-231 breast cell adenocarcinoma; experiment: as above; details: averages of 2-8 determinations
In short: as §1

[3] = tested on: PC-3 prostrate cell adenocarcinoma; experiment: as above; details: averages of 2-8 determinations
In short: as §1

[4] = tested on: T24 bladder cell carcinoma; experiment: as above; details: averages of 2-8 determinations
In short: as §1

[5] = tested on: HCT116 colon cell carcinoma; experiment: as above; details: averages of 2-8 determinations
In short: as §1

[6] = tested on: MDA PaCa-2 pancreatic cell carcinoma; experiment: as above; details: MIA PaCa-2 pancreatic cell carcinoma; averages of 2-8 determinations
In short: as §1

Row | Substance | Reduced relative colony forming efficiency, Hela S3 (% inhibition of colony forming ability) (Hela S3 cells) [%] | Reduced relative colony forming efficiency, A549 (% inhibition of colony forming ability) (A549 lung cell carcinoma) [%] | Reduced relative colony forming efficiency, HepG2 (% inhibition of colony forming ability) [1] [%] | Reduced relative colony forming efficiency, MDA-MB-231 (% inhibition of colony forming ability) [2] [%] | Reduced relative colony forming efficiency, PC-3 (% inhibition of colony forming ability) [3] [%] | Reduced relative colony forming efficiency, T24 (% inhibition of colony forming ability) [4] [%] | Reduced relative colony forming efficiency, HCT116 (% inhibition of colony forming ability) [5] [%] | Reduced relative colony forming efficiency, MIA PaCa-2 (% inhibition of colony forming ability) [6] [%]
1 | AACTTCTTGGCTAAATCGCT (antisense dA*dA*dC*dT*dT*dC*dT*dT*dG*dG*dC*dT*dA*dA*dA*dT*dC*dG*dC*dT) [AS-II-634-20] | 48.94 | 57.76 | 95.78 | 92.44 | 77.86 | 83.52 | – | –
2 | TTAGTCTTTCCTTCCAGTGA (antisense dT*dT*dA*dG*dT*dC*dT*dT*dT*dC*dC*dT*dT*dC*dC*dA*dG*dT*dG*dA) [AS-II-1254-20] | 7.64 | 36.74 | 83.28 | – | 73.31 | 41.53 | 28.54 | 3.32
3 | ATAAAGTCAAATGGGTTCTC (antisense dA*dT*dA*dA*dA*dG*dT*dC*dA*dA*dA*dT*dG*dG*dG*dT*dT*dC*dT*dC) [AS-II-1224-20] | 14.8 | 55.06 | 76.05 | – | 80.66 | 38.31 | 41.78 | 17.22
4 | TCGCTCCACCAAGTTTTCAT (antisense dT*dC*dG*dC*dT*dC*dC*dA*dC*dC*dA*dA*dG*dT*dT*dT*dT*dC*dA*dT) [AS-II-619-20] | 31.22 | 65.67 | 92.02 | 91.08 | 88.01 | 86.3 | – | 39.83
5 | AS-II-114420 (antisense dG*dT*dA*dT*dT*dG*dC*dT*dT*dC*dA*dT*dT*dA*dG*dA*dG*dT*dG*dC) | 50.57 | 61.81 | 92.17 | – | 30.21 | 62.9 | 54.25 | 46.39
6 | GAACATCAGGCAAGCAAAAT (antisense dG*dA*dA*dC*dA*dT*dC*dA*dG*dG*dC*dA*dA*dG*dC*dA*dA*dA*dA*dT) [AS-II-1006-20] | 41.79 | 61.62 | 89.31 | – | 92.58 | 61.49 | 45.56 | 47.93
